From the supplement of paper PMC6045584
± gives the standard deviation of the averaged measurements.

Tests used:
[1] = compound: Cn1c(=O)n(-c2ccc(C(C)(C)C#N)cc2)c2c3cc(-c4cnc5ccccc5c4)ccc3ncc21 [BEZ-235]; assay: surviving fraction relative to DMSO-only wells; higher = less growth inhibition; settings: exposure time: 5 days
Method in brief: (§1)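 Tumour cell lines in log phase were plated in 384-well plates at 250–500 cells per well, then, after 24 hours, exposed continuously for five days to inhibitors at 0.5, 1, 5, 10, 50, 100, 500 and 1000 nM. Viability came from CellTiter-Glo luminescence, and surviving fraction is that signal normalised to the median of DMSO-only wells. Plates were read after 10 minutes at room temperature, and each line, screened three times, was kept only when replicate Pearson r was >0.7 and median Z' was >0.3.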

[2] = compound: O=C(CCCCCCC(=O)Nc1ccccc1)NO [VORINOSTAT]; assay: as above; settings: exposure time: 5 days
Method in brief: as §1

| Test System | surviving fraction ([1]; 0.5 nM) | surviving fraction ([1]; 1 nM) | surviving fraction ([1]; 5 nM) | surviving fraction ([1]; 10 nM) | surviving fraction ([1]; 50 nM) | surviving fraction ([1]; 100 nM) | surviving fraction ([1]; 500 nM) | surviving fraction ([1]; 1000 nM) | surviving fraction ([2]; 0.5 nM) | surviving fraction ([2]; 1 nM) | surviving fraction ([2]; 5 nM) | surviving fraction ([2]; 10 nM) | surviving fraction ([2]; 50 nM) | surviving fraction ([2]; 100 nM) | surviving fraction ([2]; 500 nM) | surviving fraction ([2]; 1000 nM) |
| --- | --- | --- | --- | --- | --- | --- | --- | --- | --- | --- | --- | --- | --- | --- | --- | --- |
| RDES SOFT TISSUE | 1.26 ± 0.072 | 1.18 ± 0.21 | 1.17 ± 0.094 | 1.24 ± 0.14 | 1.48 ± 0.18 | 1.14 ± 0.29 | 0.453 ± 0.089 | 0.2 ± 0.03 | 1.21 ± 0.099 | 1.19 ± 0.13 | 1.2 ± 0.029 | 1.1 ± 0.02 | 1.05 ± 0.073 | 1.11 ± 0.12 | 0.831 ± 0.13 | 1.12 ± 0.39 |
| NOS1 BONE | 1.09 ± 0.1 | 1.08 ± 0.089 | 1.08 ± 0.085 | 1.08 ± 0.046 | 0.6 ± 0.036 | 0.49 ± 0.11 | 0.206 ± 0.024 | 0.166 ± 0.032 | 1.01 ± 0.05 | 0.982 ± 0.17 | 1.04 ± 0.021 | 1.03 ± 0.056 | 1.14 ± 0.15 | 1.07 ± 0.091 | 0.713 ± 0.089 | 0.284 ± 0.0091 |
| HCC78 LUNG | 0.953 ± 0.086 | 0.943 ± 0.17 | 1.05 ± 0.23 | 1.09 ± 0.15 | 0.621 ± 0.18 | 0.393 ± 0.05 | 0.0757 ± 0.011 | 0.0527 ± 0.01 | 1.01 ± 0.12 | 0.818 ± 0.22 | 0.852 ± 0.12 | 1 ± 0.091 | 0.947 ± 0.22 | 1.06 ± 0.019 | 0.326 ± 0.042 | 0.0463 ± 0.011 |
| NY BONE | 0.996 ± 0.023 | 0.987 ± 0.018 | 1.02 ± 0.048 | 1.01 ± 0.044 | 0.825 ± 0.04 | 0.769 ± 0.003 | 0.486 ± 0.022 | 0.464 ± 0.036 | 0.9877 ± 0.004 | 0.918 ± 0.029 | 0.973 ± 0.023 | 0.98 ± 0.033 | 1.037 ± 0.0042 | 0.916 ± 0.019 | 0.701 ± 0.012 | 0.448 ± 0.016 |
| T47D BREAST | 1.07 ± 0.034 | 1.05 ± 0.015 | 1.04 ± 0.019 | 1.02 ± 0.016 | 0.89 ± 0.015 | 0.7209 ± 0.0056 | 0.47 ± 0.016 | 0.312 ± 0.0077 | 0.967 ± 0.026 | 1.01 ± 0.02 | 1.02 ± 0.042 | 1.013 ± 0.006 | 1.08 ± 0.057 | 1.05 ± 0.043 | 0.785 ± 0.02 | 0.449 ± 0.028 |
| SG28 HEADNECK | 1.13 ± 0.053 | 1.09 ± 0.085 | 0.945 ± 0.2 | 0.965 ± 0.063 | 0.762 ± 0.053 | 0.632 ± 0.087 | 0.459 ± 0.039 | 0.342 ± 0.032 | 1.11 ± 0.14 | 1.16 ± 0.17 | 1.066 ± 0.0025 | 1.09 ± 0.018 | 1.03 ± 0.073 | 1.09 ± 0.032 | 0.998 ± 0.081 | 0.809 ± 0.11 |
| SUM159 BREAST | 1.11 ± 0.11 | 1.11 ± 0.099 | 1.1 ± 0.065 | 1.09 ± 0.069 | 0.922 ± 0.062 | 0.635 ± 0.065 | 0.228 ± 0.014 | 0.168 ± 0.015 | 0.975 ± 0.087 | 0.932 ± 0.16 | 0.929 ± 0.16 | 0.928 ± 0.15 | 0.923 ± 0.24 | 0.882 ± 0.28 | 0.926 ± 0.17 | 0.77 ± 0.29 |
| MDAMB134 BREAST | 1.08 ± 0.058 | 1.17 ± 0.033 | 1.11 ± 0.024 | 1.09 ± 0.021 | 0.881 ± 0.025 | 0.83 ± 0.083 | 0.474 ± 0.15 | 0.476 ± 0.03 | 0.938 ± 0.037 | 0.937 ± 0.17 | 0.987 ± 0.0099 | 0.857 ± 0.011 | 0.935 ± 0.026 | 0.949 ± 0.16 | 0.688 ± 0.04 | 0.781 ± 0.025 |
| SG27 HEADNECK | 0.989 ± 0.032 | 1.06 ± 0.041 | 0.888 ± 0.063 | 1.04 ± 0.049 | 0.91 ± 0.084 | 0.908 ± 0.065 | 0.717 ± 0.061 | 0.611 ± 0.04 | 1.22 ± 0.15 | 1.05 ± 0.089 | 1.01 ± 0.13 | 1.08 ± 0.048 | 0.989 ± 0.1 | 0.955 ± 0.088 | 0.824 ± 0.097 | 0.755 ± 0.048 |
| 93VU HEADNECK | 0.972 ± 0.12 | 0.985 ± 0.13 | 1.1 ± 0.11 | 1.08 ± 0.059 | 0.921 ± 0.035 | 0.71 ± 0.1 | 0.308 ± 0.053 | 0.334 ± 0.043 | 0.966 ± 0.02 | 1.06 ± 0.045 | 1.09 ± 0.087 | 1.08 ± 0.077 | 1.18 ± 0.093 | 1.1 ± 0.07 | 0.947 ± 0.035 | 0.731 ± 0.13 |
| HCC1954 BREAST | 1.02 ± 0.06 | 0.947 ± 0.1 | 1.05 ± 0.064 | 0.875 ± 0.11 | 0.492 ± 0.02 | 0.363 ± 0.02 | 0.172 ± 0.011 | 0.127 ± 0.0092 | 0.802 ± 0.19 | 0.823 ± 0.26 | 1.07 ± 0.36 | 1.18 ± 0.13 | 1.345 ± 0.0064 | 1.37 ± 0.21 | 0.839 ± 0.022 | 0.42875 ± 0.00035 |
| S68 BREAST | 0.792 ± 0.081 | 1.01 ± 0.26 | 1.07 ± 0.13 | 1.06 ± 0.22 | 0.574 ± 0.13 | 0.273 ± 0.029 | 0.0663 ± 0.0023 | 0.0637 ± 0.0023 | 0.723 ± 0.22 | 0.82 ± 0.18 | 0.91 ± 0.38 | 0.998 ± 0.21 | 1.22 ± 0.28 | 1.07 ± 0.17 | 0.73 ± 0.19 | 0.384 ± 0.018 |
| PCI30 HEADNECK | 0.955 ± 0.089 | 1.07 ± 0.066 | 1.07 ± 0.063 | 1.07 ± 0.082 | 0.83 ± 0.15 | 0.549 ± 0.011 | 0.343 ± 0.014 | 0.29 ± 0.014 | 0.958 ± 0.064 | 0.982 ± 0.079 | 0.933 ± 0.087 | 1.01 ± 0.039 | 1.07 ± 0.053 | 0.962 ± 0.066 | 0.88 ± 0.064 | 0.735 ± 0.059 |
| MCF7 BREAST | 0.934 ± 0.071 | 0.961 ± 0.017 | 0.943 ± 0.064 | 0.941 ± 0.036 | 0.681 ± 0.023 | 0.5461 ± 0.0041 | 0.328 ± 0.012 | 0.2896 ± 0.0025 | 0.854 ± 0.026 | 0.839 ± 0.033 | 0.864 ± 0.011 | 0.781 ± 0.026 | 0.977 ± 0.034 | 0.845 ± 0.028 | 0.742 ± 0.0093 | 0.648 ± 0.0092 |
| HOSMNG BONE | 0.956 ± 0.014 | 0.96 ± 0.041 | 0.929 ± 0.022 | 0.958 ± 0.05 | 0.917 ± 0.044 | 0.772 ± 0.035 | 0.426 ± 0.0052 | 0.297 ± 0.012 | 0.994 ± 0.12 | 0.94 ± 0.091 | 0.996 ± 0.17 | 1.06 ± 0.064 | 0.999 ± 0.048 | 1.09 ± 0.063 | 1.06 ± 0.023 | 1.09 ± 0.02 |
| SJSA1 BONE | 1.07 ± 0.064 | 1.04 ± 0.05 | 1.035 ± 0.004 | 1.02 ± 0.098 | 0.803 ± 0.031 | 0.623 ± 0.013 | 0.249 ± 0.015 | 0.206 ± 0.012 | 0.793 ± 0.037 | 0.946 ± 0.057 | 0.844 ± 0.049 | 0.953 ± 0.067 | 0.844 ± 0.021 | 0.973 ± 0.059 | 0.544 ± 0.035 | 0.672 ± 0.03 |
| HCT15 LARGE INTESTINE | 1.04 ± 0.026 | 1.03 ± 0.057 | 1.11 ± 0.041 | 1.1 ± 0.033 | 0.655 ± 0.035 | 0.525 ± 0.0089 | 0.249 ± 0.027 | 0.209 ± 0.0044 | 0.9863 ± 0.0055 | 0.938 ± 0.023 | 0.963 ± 0.044 | 0.867 ± 0.067 | 1.05 ± 0.028 | 1.06 ± 0.03 | 0.98 ± 0.019 | 0.674 ± 0.056 |
| SG32 HEADNECK | 1.1 ± 0.18 | 1.03 ± 0.1 | 1.42 ± 0.26 | 1.25 ± 0.13 | 0.861 ± 0.061 | 0.497 ± 0.083 | 0.255 ± 0.013 | 0.176 ± 0.026 | 0.938 ± 0.1 | 1.18 ± 0.35 | 1.18 ± 0.2 | 0.933 ± 0.053 | 1.03 ± 0.25 | 0.995 ± 0.21 | 0.697 ± 0.16 | 0.344 ± 0.068 |
| CADOES1 SOFT TISSUE | 0.965 ± 0.1 | 0.996 ± 0.098 | 0.897 ± 0.03 | 0.99 ± 0.078 | 0.531 ± 0.11 | 0.28 ± 0.063 | 0.128 ± 0.007 | 0.0853 ± 0.01 | 0.968 ± 0.063 | 0.916 ± 0.028 | 0.865 ± 0.096 | 0.824 ± 0.057 | 0.71 ± 0.23 | 0.397 ± 0.23 | 0.242 ± 0.057 | 0.0883 ± 0.016 |
| CME SYNOVIAL | 1.18 ± 0.12 | 1.28 ± 0.12 | 1.16 ± 0.066 | 1.26 ± 0.11 | 1.3 ± 0.11 | 1.12 ± 0.087 | 0.959 ± 0.076 | 0.713 ± 0.14 | 1.25 ± 0.12 | 1.15 ± 0.087 | 1.21 ± 0.061 | 0.882 ± 0.044 | 1.28 ± 0.1 | 1.08 ± 0.043 | 0.607 ± 0.089 | 0.383 ± 0.027 |
| HCC1806 BREAST | 0.958 ± 0.16 | 0.986 ± 0.14 | 1.17 ± 0.085 | 1.15 ± 0.1 | 0.837 ± 0.016 | 0.662 ± 0.05 | 0.388 ± 0.036 | 0.317 ± 0.041 | 1.13 ± 0.16 | 0.721 ± 0.61 | 0.825 ± 0.54 | 0.77 ± 0.64 | 1.18 ± 0.051 | 1.24 ± 0.16 | 0.852 ± 0.073 | 0.527 ± 0.089 |
| MDAMB361 BREAST | 0.888 ± 0.068 | 0.854 ± 0.045 | 0.904 ± 0.03 | 0.882 ± 0.051 | 0.794 ± 0.078 | 0.636 ± 0.037 | 0.355 ± 0.015 | 0.313 ± 0.02 | 0.809 ± 0.028 | 0.871 ± 0.097 | 0.796 ± 0.019 | 0.825 ± 0.037 | 0.783 ± 0.096 | 0.843 ± 0.077 | 0.596 ± 0.014 | 0.378 ± 0.015 |
